Experimental data published in patent publication US20260257998A1, “ERR MODULATORS” (University of Health Sciences and Pharmacy in St. Louis, priority 2023, published 2026).

Experiments:
[1] = molecular target: T1, ERRα (Homo sapiens, UniProt P11474); test: ERRE luciferase reporter assay in HEK293 cells transfected with pcDNA3.1 ERRα; type: cell-based; parameters: key to EC50 (ERRα): ***<1 μM; **1-5 μM; *>5 μM; i.a. (inactive); conditions: 24 hours treatment, luciferase activity
T1 construct: expressed in transfected cells; host or cells: HEK293
T1 sequence (P11474 1-423): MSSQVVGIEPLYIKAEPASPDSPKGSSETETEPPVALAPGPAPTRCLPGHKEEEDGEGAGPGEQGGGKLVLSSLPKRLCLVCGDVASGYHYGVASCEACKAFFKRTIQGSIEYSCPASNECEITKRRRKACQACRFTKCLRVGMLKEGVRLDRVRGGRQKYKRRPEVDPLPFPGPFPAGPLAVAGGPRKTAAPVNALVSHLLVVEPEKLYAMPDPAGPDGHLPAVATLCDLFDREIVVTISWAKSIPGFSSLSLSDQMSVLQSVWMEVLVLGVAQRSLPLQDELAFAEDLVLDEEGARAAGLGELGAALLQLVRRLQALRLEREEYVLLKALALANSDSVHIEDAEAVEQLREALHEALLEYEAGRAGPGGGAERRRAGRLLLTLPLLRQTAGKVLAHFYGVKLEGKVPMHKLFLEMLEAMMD
Protocol: (§1) HEK293 cells were maintained in Dulbecco's modified Eagles medium (DMEM) supplemented with 10% fetal bovine serum at 37° C. under 5% CO2. […] Cells were transfected with ERRE reporter construct and pcDNA3.1 ERRα or ERRγ. Twenty-four-hours post-transfection, the cells were treated with vehicle or compound (various concentrations) for 24 hours (4 wells per dose). Luciferase activity was measured using the One-Glo Tox luciferase reporter assay system (Promega) and […] were calculated using GraphPad Prism software.

[2] = molecular target: T2, ERRγ (Homo sapiens, UniProt P62508); test: ERRE luciferase reporter assay in HEK293 cells transfected with pcDNA3.1 ERRγ; type: cell-based; parameters: key to EC50 (ERRγ): ***<1 μM; **1-5 μM; *>5 μM; i.a. (inactive); conditions: 24 hours treatment, luciferase activity
T2 construct: expressed in transfected cells; host or cells: HEK293
T2 sequence (P62508 1-458): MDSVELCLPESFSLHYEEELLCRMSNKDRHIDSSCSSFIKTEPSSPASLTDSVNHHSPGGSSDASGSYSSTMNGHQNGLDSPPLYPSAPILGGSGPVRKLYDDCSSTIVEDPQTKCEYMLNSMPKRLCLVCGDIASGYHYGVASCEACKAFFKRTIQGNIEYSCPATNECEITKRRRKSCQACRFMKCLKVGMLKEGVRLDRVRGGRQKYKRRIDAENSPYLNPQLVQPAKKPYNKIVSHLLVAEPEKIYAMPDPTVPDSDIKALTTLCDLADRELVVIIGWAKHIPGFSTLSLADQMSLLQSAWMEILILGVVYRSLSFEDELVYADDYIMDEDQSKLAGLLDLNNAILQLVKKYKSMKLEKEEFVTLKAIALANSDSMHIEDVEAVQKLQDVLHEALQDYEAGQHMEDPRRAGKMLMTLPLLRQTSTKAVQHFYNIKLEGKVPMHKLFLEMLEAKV
Protocol: as §1

| EC50 [1] [nM] | EC50 (ERRγ) [2] | EC50 (ERRα) [1] | EC50 [2] [nM] | Structure (SMILES) |
| --- | --- | --- | --- | --- |
| > 5000 | i.a. |  |  | Oc1ccccc1C1CC(c2cccc(OC(F)(F)F)c2)=NN1 (stereo not shown) [Entry 1, o-[3-(m-Trifluoromethoxy-phenyl)-2-pyrazolin-5-yl]phenol] |
|  |  | i.a. | > 5000 | Oc1ccccc1C1CC(c2ccncc2)=NN1 (stereo not shown) [Entry 2, 2-(3-(pyridin-4-yl)-4,5-dihydro-1H-pyrazol-5-yl)phenol] |
| 1000 to 5000 |  |  | 1000 to 5000 | Oc1cccc(C2=NNC(c3cccc(O)c3)C2)c1 (stereo not shown) [Entry 3, 3,3′-(4,5-dihydro-1H-pyrazole-3,5-diyl)diphenol] |
|  | i.a. | i.a. |  | Oc1ccccc1C1CC(c2ccccc2OC(F)(F)F)=NN1 (stereo not shown) [Entry 4, 2-(3-(2-(trifluoromethoxy)phenyl)-4,5-dihydro-1H-pyrazol-5-yl)phenol] |
|  | i.a. | i.a. |  | Oc1cccc(C2CC(c3cc(C(F)(F)F)cc(C(F)(F)F)c3)=NN2)c1 (stereo not shown) [Entry 5, 3-(3-(3,5-bis(trifluoromethyl)phenyl)-4,5-dihydro-1H-pyrazol-5-yl)phenol] |
|  | i.a. | i.a. |  | Oc1ccccc1C1CC(c2cc(C(F)(F)F)cc(C(F)(F)F)c2)=NN1 (stereo not shown) [Entry 6, 2-(3-(3,5-bis(trifluoromethyl)phenyl)-4,5-dihydro-1H-pyrazol-5-yl)phenol] |
| > 5000 |  |  | > 5000 | Oc1ccc(C2CC(c3ccc(Cl)cc3)=NN2)cc1 (stereo not shown) [Entry 7, 4-(3-(4-Chlorophenyl)-4,5-dihydro-1H-pyrazol-5-yl)phenol] |
|  | i.a. | i.a. |  | Oc1ccc(C2CC(c3cc(C(F)(F)F)cc(C(F)(F)F)c3)=NN2)cc1 (stereo not shown) [Entry 9, 4-(3-(3,5-bis(trifluoromethyl)phenyl)-4,5-dihydro-1H-pyrazol-5-yl)phenol] |
| 1000 to 5000 |  |  | < 1000 | Oc1cccc(C2CC(c3ccc(Cl)cc3)=NN2)c1 (stereo not shown) [Entry 10, 3-(3-(4-Chlorophenyl)-4,5-dihydro-1H-pyrazol-5-yl)phenol] |
|  | i.a. | i.a. |  | CC(=O)N1N=C(c2ccc(Br)cc2)CC1c1ccccc1O (stereo not shown) [Entry 12, 1-(3-(4-Bromophenyl)-5-(2-hydroxyphenyl)-4,5-dihydro-1H-pyrazol-1-yl)ethan-1-one] |
|  | i.a. | i.a. |  | COc1cccc(C2=NN(C(C)=O)C(c3ccccc3O)C2)c1 (stereo not shown) [Entry 13, 1-(5-(2-Hydroxyphenyl)-3-(3-methoxyphenyl)-4,5-dihydro-1H-pyrazol-1-yl)ethan-1-one] |
|  | i.a. | i.a. |  | CC(=O)N1N=C(c2cccc(C)c2)CC1c1ccccc1O (stereo not shown) [Entry 14, 1-(5-(2-Hydroxyphenyl)-3-(m-tolyl)-4,5-dihydro-1H-pyrazol-1-yl)ethan-1-one] |
|  | i.a. | i.a. |  | CC(=O)N1N=C(c2ccccc2O)CC1c1ccccc1O (stereo not shown) [Entry 15, 1-(3,5-bis(2-hydroxyphenyl)-4,5-dihydro-1H-pyrazol-1-yl)ethan-1-one] |
|  | i.a. | i.a. |  | CC(=O)N1N=C(c2ccccc2Cl)CC1c1ccccc1O (stereo not shown) [Entry 16, 1-(3-(2-Chlorophenyl)-5-(2-hydroxyphenyl)-4,5-dihydro-1H-pyrazol-1-yl)ethan-1-one] |
| > 5000 |  |  | > 5000 | Oc1ccccc1C1CC(c2cccs2)=NN1 (stereo not shown) [Entry 17, 2-(3-(Thiophen-2-yl)-4,5-dihydro-1H-pyrazol-5-yl)phenol] |
| 1000 to 5000 |  |  | 1000 to 5000 | Oc1cccc(C2CC(c3ccccc3O)=NN2)c1 (stereo not shown) [Entry 18, 2-(5-(3-Hydroxyphenyl)-4,5-dihydro-1H-pyrazol-3-yl)phenol] |
|  | i.a. | i.a. |  | FC(F)(F)c1cc(C2=NNC(c3ccc4ccccc4c3)C2)cc(C(F)(F)F)c1 (stereo not shown) [Entry 20, 3-(3,5-bis(trifluoromethyl)phenyl)-5-(naphthalen-2-yl)-4,5-dihydro-1H-pyrazole] |
|  |  | i.a. | < 1000 | Oc1ccccc1C1=NNC(c2ccc3ccccc3c2)C1 (stereo not shown) [Entry 21, 2-(5-(Naphthalen-2-yl)-4,5-dihydro-1H-pyrazol-3-yl)phenol] |
|  | i.a. | i.a. |  | CCc1ccccc1C1CC(c2ccccc2O)=NN1 (stereo not shown) [Entry 22, 2-(5-(2-Ethylphenyl)-4,5-dihydro-1H-pyrazol-3-yl)phenol] |

| EC50 [1] [nM] | EC50 (ERRγ) [2] | EC50 (ERRα) [1] | EC50 [2] [nM] | Structure (SMILES) |
| --- | --- | --- | --- | --- |
| < 1000 |  |  | 1000 to 5000 | Cc1cccc(C2=NNC(c3ccccc3O)C2)c1 (stereo not shown) [Entry 23, 2-(3-(m-Tolyl)-4,5-dihydro-1H-pyrazol-5-yl)phenol] |
| < 1000 |  |  | < 1000 | Oc1ccccc1C1CC(c2ccc(Br)cc2)=NN1 (stereo not shown) [Entry 24, 2-(3-(4-Bromophenyl)-4,5-dihydro-1H-pyrazol-5-yl)phenol] |
| > 5000 |  |  | > 5000 | Oc1ccccc1C1CC(c2ccccn2)=NN1 (stereo not shown) [Entry 25, 2-(3-(Pyridin-2-yl)-4,5-dihydro-1H-pyrazol-5-yl)phenol] |
| > 5000 |  |  | > 5000 | Oc1ccccc1C1CC(c2cccnc2)=NN1 (stereo not shown) [Entry 26, 2-(3-(Pyridin-3-yl)-4,5-dihydro-1H-pyrazol-5-yl)phenol] |
|  | i.a. | i.a. |  | Cc1ccccc1C1=NNC(c2ccccc2O)C1 (stereo not shown) [Entry 27, 2-(3-(o-Tolyl)-4,5-dihydro-1H-pyrazol-5-yl)phenol] |
|  | i.a. | i.a. |  | Cc1ccc(C2=NNC(c3ccccc3O)C2)cc1 (stereo not shown) [Entry 28, 2-(3-(p-tolyl)-4,5-dihydro-1H-pyrazol-5-yl)phenol] |
| > 5000 |  |  | > 5000 | Oc1ccccc1C1CC(c2cccc(Br)c2)=NN1 (stereo not shown) [Entry 29, 2-(3-(3-Bromophenyl)-4,5-dihydro-1H-pyrazol-5-yl)phenol] |
| > 5000 |  |  | > 5000 | Oc1ccccc1C1=NNC(c2ccccc2O)C1 (stereo not shown) [Entry 30, 2,2′-(4,5-Dihydro-1H-pyrazole-3,5-diyl)diphenol] |
| 1000 to 5000 |  |  | > 5000 | Oc1ccccc1C1CC(c2cccc(F)c2)=NN1 (stereo not shown) [Entry 31, 2-(3-(3-Fluorophenyl)-4,5-dihydro-1H-pyrazol-5-yl)phenol] |
|  | i.a. | i.a. |  | Oc1c(F)cccc1C1CC(c2ccc(Br)cc2)=NN1 (stereo not shown) [Entry 32, 2-(3-(4-Bromophenyl)-4,5-dihydro-1H-pyrazol-5-yl)-6-fluorophenol] |
| > 5000 |  |  | 1000 to 5000 | Oc1ccccc1C1CC(c2ccccc2)=NN1 (stereo not shown) [Entry 34, 2-(3-Phenyl-4,5-dihydro-1H-pyrazol-5-yl)phenol] |
| 1000 to 5000 |  |  | 1000 to 5000 | Oc1c(Br)cccc1C1CC(c2ccc(Br)cc2)=NN1 (stereo not shown) [Entry 35, 2-Bromo-6-(3-(4-bromophenyl)-4,5-dihydro-1H-pyrazol-5-yl)phenol] |
| < 1000 |  |  | < 1000 | COc1cccc(C2CC(c3ccc(Br)cc3)=NN2)c1O (stereo not shown) [Entry 36, 2-(3-(4-Bromophenyl)-4,5-dihydro-1H-pyrazol-5-yl)-6-methoxyphenol] |
| < 1000 |  |  | < 1000 | Nc1ccccc1C1CC(c2ccccc2)=NN1 (stereo not shown) [Entry 37, 2-(3-Phenyl-4,5-dihydro-1H-pyrazol-5-yl)aniline] |
| 1000 to 5000 |  |  | 1000 to 5000 | Cc1ccc(C2CC(c3ccccc3)=NN2)c(O)c1 (stereo not shown) [Entry 38, 5-Methyl-2-(3-phenyl-4,5-dihydro-1H-pyrazol-5-yl)phenol] |
| < 1000 |  |  | < 1000 | Cc1ccc(O)c(C2CC(c3ccccc3)=NN2)c1 (stereo not shown) [Entry 39, 4-Methyl-2-(3-phenyl-4,5-dihydro-1H-pyrazol-5-yl)phenol] |
| < 1000 |  |  | 1000 to 5000 | Oc1ccccc1C1CC(c2ccc(C(F)(F)F)cc2)=NN1 (stereo not shown) [Entry 40, 2-(3-(4-(Trifluoromethyl)phenyl)-4,5-dihydro-1H-pyrazol-5-yl)phenol] |
| < 1000 |  |  | < 1000 | Oc1ccccc1C1CC(c2ccc(OC(F)(F)F)cc2)=NN1 (stereo not shown) [Entry 41, 2-(3-(4-(Trifluoromethoxy)phenyl)-4,5-dihydro-1H-pyrazol-5-yl)phenol] |
| < 1000 |  |  | < 1000 | COc1ccc(C2=NNC(c3ccccc3O)C2)cc1 (stereo not shown) [Entry 42, 2-(3-(4-Methoxyphenyl)-4,5-dihydro-1H-pyrazol-5-yl)phenol] |
